Measured values reported in patent US7772188B2, “Methods and compositions for the treatment of gastrointestinal disorders” (priority 2003, dated 2010).
No end group written: not given here.

How the values were obtained:
[1] = tested on: gastrointestinal transit; test: Murine gastrointestinal transit (GIT) assay, charcoal front; type: in vivo, mice; settings: for gastrointestinal transit rate: SEQ ID NO:4 and Zelnorm 0.1 mg/kg, FIG. 3a/3b; for intestinal transit rate versus dosage: recombinantly synthesized peptides, FIG. 4a
Procedure: In order to determine whether the peptides increase the rate of gastrointestinal transit, the peptides and controls were tested using a murine gastrointestinal transit (GIT) assay (Moon et al. Infection and Immunity 25:127, 1979). In this assay, charcoal, which can be readily visualized in the gastrointestinal tract is administered to mice after the administration of a test compound. The distance traveled by the charcoal is measured and expressed as a percentage of the total length of the […].
Mice were fasted with free access to water for 12 to 16 hours before the treatment with peptide or control buffer. The peptides were orally administered at 1 μg/kg-1 mg/kg of peptide in buffer (20 mM Tris pH 7.5) 7 minutes before being given an oral dose of 5% Activated Carbon (Aldrich 242276-250G). Control mice were administered buffer only before being given a dose of Activated Carbon. After 15 minutes, the mice were sacrificed and their intestines from the stomach to the cecum were dissected. The total length of the intestine as well as the distance traveled from the stomach to the charcoal front was measured for each animal and the results are expressed as the percent of the total length of the intestine traveled by the charcoal front. All results are reported as the average of 10 mice±standard deviation. A comparison of the distance traveled by the charcoal between the mice treated with peptide versus the mice treated with vehicle alone was performed using a Student's t test and a statistically significant difference was considered for P<0.05. P-values are calculated using a two-sided T-Test assuming unequal variances.
The identical experiment was performed to determine if SEQ ID NO:3 is effective in a chronic dosing treatment regimen. Briefly, 8 week old CD1 female mice are dosed orally once a day for 5 days with either SEQ ID NO:3 (0.06 mg/kg or 0.25 mg/kg in 20 mM Tris pH 7.5) or vehicle alone (20 mM Tris pH 7.5). On the 5th day, a GIT assay is performed identical to that above except 200 μl of a 10% charcoal solution is administered. […] The results are shown side by side with acute dosing (1 day).

[2] = tested on: intestinal secretion; test: Suckling mouse model of intestinal secretion (SuMi assay); type: in vivo; settings: suckling mice
Procedure: In this model a test compound is administered to suckling mice that are between 7 and 9 days old. After the mice are sacrificed, the gastrointestinal tract from the stomach to the cecum is dissected (“guts”). The remains (“carcass”) as well as the guts are weighed and the ratio of guts to carcass weight is calculated. If the ratio is above 0.09, one can conclude that the test compound increases intestinal secretion. […] The effect of Zelnorm® was also studied.

[3] = biological target: T1, intestinal GC-C receptor (Homo sapiens, UniProt P25092); test: Intestinal GC-C receptor activity assay (cyclic GMP by EIA in T84 cells); type: cell-based; settings: chemically synthesized peptides, FIG. 2
T1 construct: host or cells: T84 human colon carcinoma cells
T1 sequence (P25092 24-1073): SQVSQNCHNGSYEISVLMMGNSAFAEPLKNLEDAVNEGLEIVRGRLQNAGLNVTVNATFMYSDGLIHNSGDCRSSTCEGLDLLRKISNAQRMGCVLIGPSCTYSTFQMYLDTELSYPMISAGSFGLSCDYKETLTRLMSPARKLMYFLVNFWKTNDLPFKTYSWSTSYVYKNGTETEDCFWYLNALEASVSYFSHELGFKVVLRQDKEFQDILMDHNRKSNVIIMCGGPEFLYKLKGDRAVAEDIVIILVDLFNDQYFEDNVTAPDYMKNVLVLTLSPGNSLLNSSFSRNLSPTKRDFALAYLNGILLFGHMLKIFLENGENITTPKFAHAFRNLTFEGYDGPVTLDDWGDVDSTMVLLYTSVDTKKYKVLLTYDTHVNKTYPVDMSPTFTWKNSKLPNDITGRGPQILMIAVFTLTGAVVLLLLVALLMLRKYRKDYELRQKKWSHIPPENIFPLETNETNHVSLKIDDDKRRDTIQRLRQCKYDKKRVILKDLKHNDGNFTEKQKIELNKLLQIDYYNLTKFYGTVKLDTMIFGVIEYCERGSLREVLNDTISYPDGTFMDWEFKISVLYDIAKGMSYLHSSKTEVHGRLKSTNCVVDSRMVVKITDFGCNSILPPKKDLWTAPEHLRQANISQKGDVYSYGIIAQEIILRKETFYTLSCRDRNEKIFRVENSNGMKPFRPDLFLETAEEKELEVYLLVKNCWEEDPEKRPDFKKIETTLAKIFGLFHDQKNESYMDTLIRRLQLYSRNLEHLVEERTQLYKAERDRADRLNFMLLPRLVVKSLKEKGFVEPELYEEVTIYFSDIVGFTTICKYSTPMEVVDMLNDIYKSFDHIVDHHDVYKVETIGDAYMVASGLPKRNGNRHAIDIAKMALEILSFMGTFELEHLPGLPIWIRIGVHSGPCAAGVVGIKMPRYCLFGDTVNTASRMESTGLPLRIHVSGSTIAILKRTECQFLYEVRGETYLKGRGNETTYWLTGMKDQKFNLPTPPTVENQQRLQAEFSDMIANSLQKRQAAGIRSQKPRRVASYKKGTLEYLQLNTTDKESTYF
Procedure: The ability of SEQ ID NO:5, SEQ ID NO:4, and SEQ ID NO:3 to activate the intestinal GC-C receptor was assessed in an assay employing the T84 human colon carcinoma cell line (American Type Culture Collection (Bethesda, Md.)). For the assays cells were grown to confluency in 24-well culture plates with a 1:1 mixture of Ham's F12 medium and Dulbecco's modified Eagle's medium (DMEM), supplemented with 5% fetal calf serum and were used at between passages 54 and 60.
Briefly, monolayers of T84 cells in 24-well plates were washed twice with 1 ml/well DMEM, then incubated at 37° C. for 10 min with 0.45 ml DMEM containing 1 mM isobutylmethylxanthine (IBMX), a cyclic nucleotide phosphodiesterase inhibitor. Test peptides (50 μl) were then added and incubated for 30 minutes at 37° C. The media was aspirated and the reaction was then terminated by the addition of ice cold 0.5 ml of 0.1N HCl. The samples were held on ice for 20 minutes and then evaporated to dryness using a heat gun or vacuum centrifugation. The dried samples were resuspended in 0.5 ml of phosphate buffer provided in the Cayman Chemical Cyclic GMP EIA kit (Cayman Chemical, Ann Arbor, Mich.). Cyclic GMP was measured by EIA according to procedures outlined in the Cayman Chemical Cyclic GMP EIA kit.

[4] = biological target: T2, GC-C receptors found in rat intestinal mucosa (Rattus norvegicus, UniProt P23897); set-up: Intestinal mucosa was extruded from the intestine by gentle pressure; from tissue; host or cells: rat small-intestinal epithelial cells (mucosa), used as a cell suspension; settings: same assay, observed by Giannella et al.; cited from earlier work
T2 sequence (P23897 23-1072): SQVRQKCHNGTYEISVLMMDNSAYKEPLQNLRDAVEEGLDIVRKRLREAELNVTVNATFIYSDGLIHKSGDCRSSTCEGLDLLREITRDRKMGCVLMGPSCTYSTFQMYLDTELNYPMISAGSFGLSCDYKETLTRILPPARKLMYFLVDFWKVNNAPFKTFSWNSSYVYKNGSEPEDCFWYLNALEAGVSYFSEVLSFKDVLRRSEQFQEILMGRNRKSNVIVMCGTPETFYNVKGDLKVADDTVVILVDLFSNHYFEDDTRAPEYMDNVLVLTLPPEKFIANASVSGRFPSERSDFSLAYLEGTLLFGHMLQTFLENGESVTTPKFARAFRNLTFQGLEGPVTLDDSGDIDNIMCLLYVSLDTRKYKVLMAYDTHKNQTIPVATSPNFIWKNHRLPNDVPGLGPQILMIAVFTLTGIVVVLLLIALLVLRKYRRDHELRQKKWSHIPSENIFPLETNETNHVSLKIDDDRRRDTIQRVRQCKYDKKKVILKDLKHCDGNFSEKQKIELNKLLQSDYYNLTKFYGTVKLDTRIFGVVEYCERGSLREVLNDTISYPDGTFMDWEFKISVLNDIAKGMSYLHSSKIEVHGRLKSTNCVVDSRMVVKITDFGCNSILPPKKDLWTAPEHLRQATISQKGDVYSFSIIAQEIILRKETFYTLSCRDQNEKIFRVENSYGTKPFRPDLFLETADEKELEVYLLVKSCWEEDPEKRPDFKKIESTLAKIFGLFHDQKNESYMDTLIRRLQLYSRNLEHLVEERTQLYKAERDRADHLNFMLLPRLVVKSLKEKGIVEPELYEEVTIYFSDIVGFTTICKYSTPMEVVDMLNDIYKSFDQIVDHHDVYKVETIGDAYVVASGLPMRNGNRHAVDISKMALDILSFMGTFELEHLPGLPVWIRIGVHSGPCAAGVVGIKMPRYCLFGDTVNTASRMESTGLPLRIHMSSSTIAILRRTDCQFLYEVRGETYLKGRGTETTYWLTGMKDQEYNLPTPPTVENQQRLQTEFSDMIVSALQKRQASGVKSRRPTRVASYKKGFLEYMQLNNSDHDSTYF

[5] = tested on: PBQ-induced writhing; test: Phenylbenzoquinone (PBQ)-induced writhing model
[6] = recombinant peptides, dose response, FIG. 6a

| Compound | gastrointestinal transit rate ([1]; acute, oral, mice) | effect in mouse gastrointestinal motility assay upon chronic dosing ([1]; oral once a day for 5 days, CD1 female mice, FIG. 4c) | intestinal secretion (guts to carcass weight ratio) ([2]; 0.2 mg/kg, FIG. 5) | activity in GC-C receptor activity assay [3] | intestinal transit rate versus Tris buffer or equivalent dose of Zelnorm ([1]; acute, oral, mice, chemically synthesized peptides, FIG. 4b) | intestinal transit rate versus dosage ([1]; acute, oral, mice) | intestinal secretion (guts to carcass weight ratio) ([2]; dose response, FIG. 5a/5b) | intestinal secretion (guts to carcass weight ratio) [2, 6] | Kd [4] | antinociceptive effect relative to indomethacin ([5]; mouse PBQ writhing, visceral pain model) | writhings compared to the vehicle control ([5]; mouse, oral, 1 mg/kg dose, FIG. 8a) |
| --- | --- | --- | --- | --- | --- | --- | --- | --- | --- | --- | --- |
| [H]/N=C(/NCCCCC)N/N=C/c1c[nH]c2ccc(OC)cc12 [Zelnorm®, tegaserod] | increase gastrointestinal transit rate | effective | does not increase intestinal secretion | – | – | – | – | – | – | – | – |
| NSSNYCCELCCNPACTGCY [SEQ ID NO:4, Asn Ser Ser Asn Tyr Cys Cys Glu Leu Cys Cys Asn Pro Ala Cys Thr Gly Cys Tyr] | increase gastrointestinal transit rate | – | – | activity comparable to SEQ ID NO:4 | increase intestinal transit rates more than either Tris buffer alone or an equivalent dose of Zelnorm® | intestinal transit rate increases with an increasing dosage | increase intestinal secretion | increase intestinal secretion | ~0.013 µM | – | – |
| NSSNYCCEYCCNPACTGCY (cysteine pairing not given here) [SEQ ID NO:5] | – | – | – | – | – | intestinal transit rate increases with an increasing dosage | – | increase intestinal secretion | – | antinociceptive effects in this visceral pain model comparable to the intermediate doses of indomethacin | Significant reductions in writhings |
